From article PMC8605905 (Oxidative Medicine and Cellular Longevity, 2021) come the findings set out here.

Experiment [1] relates to caspase 1. Description: Caspase 1 activity in Aβ-GFP cells. The experiment is classed as cell-based, Human. The following applies: 5 μM, vs untreated cells. As for the experimental part: (§1) Aβ-GFP or ∆K280 tauRD-DsRed SH-SY5Y cells were seeded into 6-well plates (5 × 10^5/well) and treated with retinoic acid, coumarin-chalcone derivatives, and doxycycline as previously described. On day 8, cells were collected and lysates were prepared with six freeze/thaw cycles. The supernatant was collected by centrifugation, followed by measurement of the caspase 1 activity in 50 μg aliquots of cell extract using the ICE fluorometric assay kit (BioVision, Milpitas, CA, USA). Following incubation of the mixture at 37°C for 2 h, fluorescence was measured with excitation/emission wavelengths at 400/505 nm (FLx800 fluorescence microplate reader). In addition, the collected cells were lysed by sonication. Acetylcholinesterase (AChE) activity in the supernatant was determined in 10 μg aliquots of cell extracts using the AChE activity assay kit (Sigma-Aldrich) according to the manufacture's protocol. Finally, the absorbance at 412 nm was measured using a Multiskan GO spectrophotometer (Thermo Fisher Scientific).

Experiment [2] deals with Aβ-GFP SH-SY5Y cells. Description: Real-time PCR of Aβ-GFP RNA. The following applies: 5 μM. The experiment is classed as cell-based, Human. How it is done:
To measure the Aβ-GFP/tauRD-DsRed RNA expression on day 8, total RNA was extracted from collected cells and reverse-transcribed to cDNA (SuperScript III reverse transcriptase; Invitrogen, Waltham, MA, USA). Real-time quantitative PCR was performed using 100 ng of cDNA and the gene-specific TaqMan fluorogenic probe PN4331348 (EGFP) or customized Assays-by-Design probe for DsRed and 4326321E (HPRT1) (StepOnePlus Real-time PCR system, Applied Biosystems, Foster City, CA, USA). The RNA expression level was calculated using the formula 2^ΔCt, ΔCT = CT (control) − CT (target), in which CT indicates the cycle threshold.

The test system of experiment [3] is Aβ-GFP SH-SY5Y cells. Kind of experiment: High content analysis of Aβ-GFP fluorescence. The experiment is classed as cell-based, Human. As for the experimental part: Human neuroblastoma SH-SY5Y-derived Aβ-GFP [23] and ∆K280 tauRD-DsRed cells were kept in DMEM/nutrient mixture F12 (DMEM/F12) containing 10% FBS, 5 μg/ml blasticidin, and 100 μg/ml hygromycin (InvivoGen, San Diego, CA, USA). Doxycycline (Sigma-Aldrich) was applied to induce the expression of Aβ-GFP (5 μg/ml doxycycline) or ∆K280 tauRD-DsRed (2 μg/ml doxycycline).
On day 1, Aβ-GFP or ∆K280 tauRD-DsRed SH-SY5Y cells were seeded into 96-well plates (2.5 × 10^4/well) and treated with retinoic acid (10 μM; Sigma-Aldrich) to prompt neuronal differentiation. […] Image Acquisition and Analysis Software (MetaXpress) (Molecular Devices, Sunnyvale, CA, USA) was used to analyse the images. CellROX Orange (5 μM; Molecular Probes, Eugene, OR, USA) (for Aβ-GFP cells) or dichloro-dihydro-fluorescein diacetate (DCFH-DA, 10 μM; Invitrogen) (for ∆K280 tauRD-DsRed cells) was added to the cells and incubated at 37°C for 30 min.

Experiment [4] has as its system Acetylcholinesterase (AChE). Description: AChE activity in Aβ-GFP cells. The experiment is classed as cell-based. The following applies: 5 μM, vs untreated cells. As for the experimental part: as §1
For experiment [5], the system named is Aβ-GFP SH-SY5Y cells. Kind of experiment: ROS assay (CellROX Orange) in Aβ-GFP cells. The experiment is classed as cell-based, Human. Conditions: tested 1.2–5 μM. How it is done: On day 1, Aβ-GFP or ∆K280 tauRD-DsRed SH-SY5Y cells were seeded into 96-well plates (2.5 × 10^4/well) and treated with retinoic acid (10 μM; Sigma-Aldrich) to prompt neuronal differentiation. […] On day 8, cells were stained with Hoechst 33342 (0.1 μg/ml; Sigma-Aldrich) for 30 min, and cell images were automatically captured at excitation/emission wavelengths of 482/[…] (GFP fluorescence) or 543/593 nm (DsRed fluorescence) using a high content analysis (HCA) system (Micro Confocal High-Content Imaging System). Image Acquisition and Analysis Software (MetaXpress) (Molecular Devices, Sunnyvale, CA, USA) was used to analyse the images. CellROX Orange (5 μM; Molecular Probes, Eugene, OR, USA) (for Aβ-GFP cells) or dichloro-dihydro-fluorescein diacetate (DCFH-DA, 10 μM; Invitrogen) (for ∆K280 tauRD-DsRed cells) was added to the cells and incubated at 37°C for 30 min. The HCA system was used to measure intracellular ROS at 531/593 nm (CellROX Orange fluorescence) or 482/536 nm (DCFH-DA fluorescence) of excitation/emission wavelengths.

The subject of experiment [6] is Aβ-GFP SH-SY5Y cells. Kind of experiment: High content analysis of neurite outgrowth in Aβ-GFP cells. The experiment is classed as cell-based, Human. Conditions: 5 μM. How it is done:
On day 1, Aβ-GFP or ∆K280 tauRD-DsRed SH-SY5Y cells were plated into 24-well plates (6 × 10^4/well) followed by addition of retinoic acid. On day 2, cells were treated with coumarin-chalcone derivatives (5 or 10 μM) and with doxycycline (5 or 2 μg/ml) to induce the expression of Aβ-GFP or ∆K280 tauRD-DsRed. On day 8, 4% paraformaldehyde, 0.1% Triton X-100, and 3% BSA were used to fix, permeabilize, and block cells, respectively. Subsequently, the cells were stained with TUBB3 (neuronal class III β-tubulin) primary antibody (1 : 1000; Covance, Princeton, NJ, USA) at 4°C overnight. Goat anti-rabbit Alexa Fluor 555 secondary antibody (1 : 1000; Thermo Fisher Scientific) was then added, followed by a 3 h incubation at room temperature. Following staining nuclei with 4′,-6-diamidino-2-phenylindole (DAPI) (0.1 μg/ml; Sigma-Aldrich), the neurons were imaged by using the HCA system and analysed by using the Neurite Outgrowth Application Module (MetaXpress; Molecular Devices).
(§2) To monitor the cAMP-mediated signal transduction pathway, CRE-GFP 293 cells in 6-well plates (1 × 10^6/well) were pretreated with kinase inhibitor H-89 (LC Laboratories, Woburn, MA, USA), KN-62 (Cayman Chemical, Ann Arbor, MI, USA), U0126 (LC Laboratories), or wortmannin (LC Laboratories) (10 μM) for 4 h before forskolin or LM-021 (10 μM) addition for 5 h. GFP fluorescence/protein and total/phosphorylated PKA, CaMKII, ERK, PI3K, and CREB levels were examined. In addition, Aβ-GFP or ∆K280 tauRD-DsRed SH-SY5Y cells were treated with retinoic acid (10 μM) on day 1, followed by the addition of LM-021 (5 or 10 μM) and doxycycline (5 or 2 μg/ml) on day 2, as described. Kinase inhibitors (10 μM) were added on day 6. On day 8, the cells were collected for protein expression analysis of BDNF, BCL2 (BCL2 apoptosis regulator), and BAX (BCL2 associated X, apoptosis regulator), and total/phosphorylated PKA, CaMKII, ERK, PI3K, and CREB. Also, cells were stained with DAPI and assessed for neurite outgrowth as described above.

The subject of experiment [7] is CRE-GFP 293 cells. Description: CRE-GFP 293 reporter cell assay (flow cytometry). The experiment is classed as cell-based, Human. Conditions: 10 μM, 5 h, in the presence of Ca2+ ionophore (2 μM).
Text: Using the pCRE-MetLuc2-Reporter plasmid (Clontech, Mountain View, CA, USA) as a template, the DNA fragment containing the cAMP response element (CRE) motifs and TATA-like promoter (PTAL) flanked by MluI and AgeI restriction sites was amplified by PCR using sense ([…], MluI site underlined) and antisense ([…], AgeI site underlined) primers. The amplified CRE-PTAL promoter fragment was cloned into pGEM-T Easy (Promega, Madison, WI, USA) and sequenced. The CRE-PTAL-containing MluI/AgeI fragment and GFP-containing AgeI/NotI fragment (from pEGFP-N1; Clontech) were subcloned into MluI- and NotI-digested pcDNA5/FRT/TO (Novagen, Madison, WI, USA). The resulting construct with CRE-PTAL-driving GFP was used to establish 293 GFP reporter cells by targeting insertion into Flp-In-293 cells according to the supplier's instructions (Invitrogen). The cells were grown in a medium containing 5 μg/ml blasticidin and 100 μg/ml hygromycin.
On day 1, CRE-GFP 293 cells were seeded into 48-well plates (5 × 10^4/well). After 24 h, cells were treated with Ca^2+ ionophore (2 μM) (Sigma-Aldrich) for 0–24 h. Cell viability was measured using 3,(4,5-dimethylthiazol-2-yl)-2,5-diphenyltetrazolium bromide (MTT) assay (Sigma-Aldrich). The absorbance of the insoluble purple formazan dye was quantified at 570 nm on a μQuant microplate spectrophotometer (Bio-Tek). In addition, the cells were treated with the Ca^2+ ionophore A23187 (0.5–10 μM) (Sigma-Aldrich) for 5 h, followed by analysis of GFP fluorescence by flow cytometry (Becton–Dickinson, Franklin Lakes, NJ, USA) with excitation/emission wavelengths at 488/507 nm. To monitor CREB activation, cells were treated with forskolin or coumarin-chalcone derivatives (5–10 μM) in the presence or absence of Ca^2+ ionophore (2 μM) for 5 h, and GFP fluorescence was analysed.
as §2
For orientation: In flow cytometry, cells or beads pass a laser one at a time.

Experiment [8] in a line: DPPH radical-scavenging assay. The following applies: compounds 10–160 μM, 100 μM DPPH, 30 min, n = 3. As for the experimental part: Stable free radical 1,1-diphenyl-2-picrylhydrazyl (DPPH) (Sigma-Aldrich) was applied to test the potential radical-scavenging activity of the coumarin-chalcone derivatives. In brief, the compounds (10–160 μM) were added to an ethanol solution containing 100 μM DPPH. The mixture was vortexed for 15 sec, left to stand for 30 min at room temperature, and scavenging capacity was measured at a wavelength of 517 nm using a Multiskan GO microplate spectrophotometer (Thermo Fisher Scientific, Waltham, MA, USA).

The term EC50 denotes the concentration at which the effect is half-maximal. Take `COc1cc(/C=C/C(=O)CC(=O)/C=C/c2ccc(O)c(OC)c2)ccc1O` [Curcumin, reference compound]: the “Caspase 1 activity” value in experiment [1] is listed as “reduced”. In experiment [2], the “Aβ-GFP RNA levels” value was “did not significantly modify”. Also, the EC50 in experiment [3] (Homo sapiens, SH-SY5Y, read-out: EC50 in Aβ aggregation inhibition (GFP fluorescence)) was 6.1 µM. In addition, the “Concentration significantly augmenting green fluorescence intensity (Aβ-GFP)” value in experiment [3] (tested 1.2–5 μM, day 8) was in the range of 2.5 to 5 µM. The AChE activity entry in experiment [4] is on record as “reduced”. Moreover, the “Concentration effectively decreasing ROS levels caused by Aβ overexpression” value in experiment [5] lay within 2.5 to 5 µM. Moreover, in experiment [6], the “Neurite length, processes, and branches” value is listed as “successfully ameliorated”.
On to `C=C[C@@]1(C)CC(=O)[C@]2(O)[C@@]3(C)[C@@H](O)CCC(C)(C)[C@@H]3[C@H](O)[C@H](OC(C)=O)[C@@]2(C)O1` [Forskolin, forskolin], for which the figures for the “CRE-motif-driven GFP expression” value in experiment [7] and in experiment [7] (listed as forskolin) were “significantly increased” and “significantly activated”, respectively.
On to `O=c1c(O)c(-c2ccc(O)cc2)oc2cc(O)cc(O)c12` [Kaempferol, kaempferol, reference compound], for which the EC50 in experiment [8] came to 28 µM.
